{"source": "patent US11491145B2", "about": "“Combination therapies comprising targeted therapeutics” (priority 2017, dated 2022)", "assay": "Average weight changes in H460 model", "assay_type": "in vivo", "details": "SCID mice, tracked 21 days, weight loss also in vehicle group, FIG. 1B", "procedure": "In this study, each study group included 8 SCID mice with H460 xenograft. Each group received vehicle (once per week), talazoparib (0.3 mg/kg, one does per day for 4-5 days per week), SDC-TRAP-0063 (100 mg/kg, once per week), or a combination therapy of SDC-TRAP-0063 (100 mg/kg, once per week) and talazoparib (0.3 mg/kg, 5 days per week).\nAverage weight changes were also tracked for 21 days and the results for the groups treated with talazoparib, SDC-TRAP-0063, and a combination of SDC-TRAP-0063 and talazoparib were shown in FIG. 1B.", "data": [{"smiles": "Cn1ncnc1[C@H]1c2n[nH]c(=O)c3cc(F)cc(c23)N[C@@H]1c1ccc(F)cc1", "note": "[talazoparib, Talazoparib]", "values": [{"measurement": "average weight changes (weight loss)", "value": "Weight loss was observed"}]}]}
